Read-outs that look alike come from different tables or passages of the source.
Key:
[1] = tested on: PPARG (murine PPARg2 or full-length human PPARG, 3xPPRE-luciferase reporter); experiment: Cell-based PPRE-luciferase transactivation assay in COS-1 cells; conditions: for EC50: PPRE-luciferase, COS-1 cells, NA = not active, read-out: EC50 (nM) PPRE
Description: Cell-Based Transactivation Assay:
PPRE is a DNA that contains a binding site for PPARG; thus PPRE is a PPAR response element, used herein as a promoter reporter. The binding site is a DR1 response element with the sequence AGGTCA repeated 3 times in tandem and then fused to a construct for luciferase.
Thus, PPRE is the basis of the cell based transactivation assay described below. The plasmid DNA is co-transfected along with a plasmid for PPARG into COS-1 cells. After an overnight incubation, cells are treated with DMSO or compounds.
Confluent COS-1 cells were transfected with 4.5 μg murine PPARg2-pSV Sport or full-length human PPAR9-pSport6, 4.5 μg 3×PPRE-luciferase reporter and 27 μL X-treme Gene 9 transfection reagent in serum-free opti-mem media (Gibco), followed by overnight incubation at 37° C., 5% CO2. Transfected cells were plated in white Perkin Elmer 384-well plates and incubated 4 hours. […] After 18 hour incubation, treated cells were developed with Brite Lite Plus (Perkin Elmer) and read in 384-well Luminescence Perkin Elmer EnVision Multilabel plate reader. Graphs were plotted in triplicate in GraphPad Prism Software as fold change of treated cells over DMSO control cells.

GST-PPARG-LBD = GST-PPARG-LBD (Homo sapiens (Human), UniProt P37231); experiment: Lanthascreen PPARG competitive binding assay (Invitrogen, TR-FRET); conditions: NA = not active, inc = incomplete curve, read-out: IC50 (nM) Lantha
Procedure, shortened: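 Values are fold change in 520 nm/490 nm FRET ratio relative to a 2% DMSO no-ligand control, excitation 340 nm. Compound dilutions starting at 10 μM competed against 5 nM Fluormone Pan-PPAR Green for GST-PPARG-LBD bound by 5 nM Tb anti-GST antibody. Incubation 2 h in the dark in assay buffer C, triplicate wells.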

[2] = molecular target: Gal-4-PPAR (human PPAR LBD fused to GAL4 DNA-binding domain) (Homo sapiens (Human), UniProt P37231); experiment: GAL4-PPARG LBD / UAS-luciferase transactivation assay in HEK 293T cells; format: cell-based
[3] = Lanthascreen competitive binding
[4] = GAL4 transactivation, HEK 293T cells; NA = not active; read-out: EC50 (nM) GAL4
[5] = HEK-293T, 18 h, read-out: % transactivation at 10 μM (GAL4)
[6] = HEK-293T, 18 h; read-out: % transactivation at 10 μM (GAL4)

Sequence of GST-PPARG-LBD (P37231 238-503): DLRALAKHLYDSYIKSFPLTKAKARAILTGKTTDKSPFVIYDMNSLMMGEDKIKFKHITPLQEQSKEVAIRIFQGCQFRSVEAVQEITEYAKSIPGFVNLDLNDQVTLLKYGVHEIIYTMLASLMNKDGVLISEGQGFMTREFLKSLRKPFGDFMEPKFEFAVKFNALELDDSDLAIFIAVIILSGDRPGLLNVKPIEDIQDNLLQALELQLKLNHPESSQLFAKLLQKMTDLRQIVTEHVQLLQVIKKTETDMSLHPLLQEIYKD
Sequence of Gal-4-PPAR (human PPAR LBD fused to GAL4 DNA-binding domain) (P37231 238-503): as above

Row | SMILES | PPRE transactivation (% in parentheses) ([1]; rosiglitazone = 100%) | IC50 (GST-PPARG-LBD; [3]) | EC50 [1] | other results
1 | Cc1cc2cc(C(=O)N[C@@H](C)c3ccc(Br)cc3)ccc2n1Cc1ccc(-c2ccccc2C(=O)O)cc1 [Example 135, (S)-4′-((5-((1-(4-Bromophenyl)ethyl)carbamoyl)-2-methyl-1H-indol-1-yl)methyl)-[1,1′-biphenyl]-2-carboxylic acid] | (0%) | 80 nM |  | 
2 | Cc1c(C)n(Cc2ccc(-c3ccccc3C(=O)O)cc2)c2ccc(C(=O)N[C@@H]3COc4ccccc4C3)cc12 [Example 250, (S)-4′-((5-(chroman-3-ylcarbamoyl)-2,3-dimethyl-1H-indol-1-yl)methyl)-[1,1′-biphenyl]-2-carboxylic acid] | (0%) | 88 nM |  | 
3 | Cc1c(C)n(Cc2ccc(-c3ccccc3C(=O)O)cc2)c2ccc(C(=O)NCC3COc4ccccc4O3)cc12 (stereo not drawn) [Example 88, 4′-((5-((2,3-dihydrobenzo[b][1,4]dioxin-2-yl)methylcarbamoyl)-2,3-dimethyl-1H-indol-1-yl)methyl)biphenyl-2-carboxylic acid] | (17%) | 11 nM | 170 nM | 
4 | CCC(NC(=O)c1ccc2c(ccn2Cc2ccccc2-c2ccc(C(=O)O)cc2)c1)c1ccccc1 (stereo not drawn) [Example 70, 2′-((5-((1-Phenylpropyl)carbamoyl)-1H-indol-1-yl)methyl)-[1,1′-biphenyl]-4-carboxylic acid] |  | 10 nM |  | PPRE transactivation (% in parentheses) [1]: (0%)
5 | CCC(NC(=O)c1ccc2c(ccn2Cc2cccc(-c3ccc(C(=O)O)cc3)c2)c1)c1ccccc1 (stereo not drawn) [Example 67, 3′-((5-((1-Phenylpropyl)carbamoyl)-1H-indol-1-yl)methyl)-[1,1′-biphenyl]-4-carboxylic acid] | (8%) | 2 nM | 2 nM | 
6 | Cc1c(C)n(Cc2ccc(-c3ccccc3C(=O)O)cc2)c2ccc(C(=O)NCc3ccc(OC(F)(F)F)cc3)cc12 [compound 15, 4′-((2,3-Dimethyl-5-(4-(trifluoromethoxy)benzylcarbamoyl)-1H-indol-1-yl)methyl)biphenyl-2-carboxylic acid] | (20%) |  | 83 nM | 
7 | Cc1c(C)n(Cc2ccc(-c3ccccc3C(=O)O)cc2)c2ccc(C(=O)NCc3ccc4c(c3)OCO4)cc12 [Example 78, 4′-((5-(benzo[d][1,3]dioxol-5-ylmethylcarbamoyl)-2,3-dimethyl-1H-indol-1-yl)methyl)biphenyl-2-carboxylic acid] | (30%) | 33 nM | 1000 nM | 
8 | Cc1c(C)n(Cc2ccc(-c3ccccc3C(=O)O)cc2)c2ccc(C(=O)NC[C@H](C)c3ccccc3)cc12 [Example 74, (R)-4′-((2,3-dimethyl-5-(2-phenylpropylcarbamoyl)-1H-indol-1-yl)methyl)biphenyl-2-carboxylic acid] | (26%) | 76 nM | 300 nM | 
9 | CCC[C@H](NC(=O)c1ccc2c(c1)c(C)c(C)n2Cc1ccc(-c2ccccc2C(=O)O)cc1)c1ccccc1 [Example 114, (S)-4′-((2,3-dimethyl-5-(1-phenylbutylcarbamoyl)-1H-indol-1-yl)methyl)biphenyl-2-carboxylic acid] | (14%) | 0.8 nM | 8 nM | 
10 | Cc1c(C)n(Cc2ccc(-c3ccccc3C(=O)O)cc2)c2ccc(C(=O)NCc3ccc(S(N)(=O)=O)cc3)cc12 [compound 17, 4′-((2,3-Dimethyl-5-(4-sulfamoylbenzylcarbamoyl)-1H-indol-1-yl)methyl)biphenyl-2-carboxylic acid] | (0%) | 300 nM |  | 
11 | COc1cccc([C@H](C)NC(=O)c2ccc3c(c2)c(C)c(C)n3Cc2ccc(-c3ccccc3C(=O)O)cc2)c1 [compound 21, (S)-4′-((5-(1-(3-Methoxyphenyl)ethylcarbamoyl)-2,3-dimethyl-1H-indol-1-yl)methyl)biphenyl-2-carboxylic acid] | (12%) | 13 nM | 46 nM | 
12 | Cc1c(C)n(Cc2ccc(-c3ccccc3C(=O)O)cc2)c2ccc(C(=O)NCc3ccc(Cl)cc3)cc12 [compound 14, 4′-((5-(4-Chlorobenzylcarbamoyl)-2,3-dimethyl-1H-indol-1-yl)methyl)biphenyl-2-carboxylic acid] | (21%) | 4 nM | 70 nM | 
15 | Cc1c(C)n(Cc2ccc(-c3ccccc3C(=O)O)cc2)c2ccc(C(=O)NCc3ccc(F)c(F)c3)cc12 [Example 77, 4′-((5-(3,4-difluorobenzylcarbamoyl)-2,3-dimethyl-1H-indol-1-yl)methyl)biphenyl-2-carboxylic acid] | (20%) |  | 95 nM | 
16 | Cc1c(C)n(Cc2ccc(-c3ccccc3C(=O)O)cc2)c2ccc(C(=O)N[C@@H](C)c3ccccc3F)cc12 [Example 160, (S)-4′-((5-((1-(2-fluorophenyl)ethyl)carbamoyl)-2,3-dimethyl-1H-indol-1-yl)methyl)-[1,1′-biphenyl]-2-carboxylic acid] |  | 7 nM |  | EC50 [2, 4]: 383 nM; activation at 10 µM [2, 5]: 35%
17 | Cc1ccc(F)c([C@H](C)NC(=O)c2ccc3c(c2)c(C)c(C)n3Cc2ccc(-c3ccccc3C(=O)O)cc2)c1 [Example 211, (S)-4′-((5-((1-(2-fluoro-5-methylphenyl)ethyl)carbamoyl)-2,3-dimethyl-1H-indol-1-yl)methyl)-[1,1′-biphenyl]-2-carboxylic acid] |  | 6 nM |  | EC50 [2, 4]: 251 nM; activation at 10 µM [2, 6]: 20%
18 | Cc1c(C)n(Cc2ccc(-c3ccccc3C(=O)O)cc2)c2ccc(C(=O)NCc3ccc(F)cc3F)cc12 [Example 164, 4′-((5-((2,4-difluorobenzyl)carbamoyl)-2,3-dimethyl-1H-indol-1-yl)methyl)-[1,1′-biphenyl]-2-carboxylic acid] |  | 19 nM |  | EC50 [2, 4]: 987 nM; activation at 10 µM [2, 5]: 30%
19 | Cc1c(C)n(Cc2ccc(-c3ccccc3C(=O)O)cc2)c2ccc(C(=O)N[C@@H](C)c3cc(F)ccc3C(F)(F)F)cc12 [Example 241, (S)-4′-((5-((1-(5-fluoro-2-(trifluoromethyl)phenyl)ethyl)carbamoyl)-2,3-dimethyl-1H-indol-1-yl)methyl)-[1,1′-biphenyl]-2-carboxylic acid] |  | 57 nM |  | EC50 [2, 4]: 453 nM; activation at 10 µM [2, 5]: 20%
20 | COc1ccc(F)cc1[C@H](C)NC(=O)c1ccc2c(c1)c(C)c(C)n2Cc1ccc(-c2ccccc2C(=O)O)cc1 [Example 206, (S)-4′-((5-((1-(5-fluoro-2-methoxyphenyl)ethyl)carbamoyl)-2,3-dimethyl-1H-indol-1-yl)methyl)-[1,1′-biphenyl]-2-carboxylic acid] |  | 26 nM |  | EC50 [2, 4]: 405 nM; activation at 10 µM [2, 6]: 20%
21 | COc1ccc([C@H](C)NC(=O)c2ccc3c(c2)c(C)c(C)n3Cc2ccc(-c3ccccc3C(=O)O)cc2)cc1Cl [Example 197, (S)-4′-((5-((1-(3-chloro-4-methoxyphenyl)ethyl)carbamoyl)-2,3-dimethyl-1H-indol-1-yl)methyl)-[1,1′-biphenyl]-2-carboxylic acid] |  | 17 nM |  | EC50 [2, 4]: 1630 nM; activation at 10 µM [2, 6]: 20%
22 | Cc1c(C)n(Cc2ccc(-c3ccccc3C(=O)O)cc2)c2ccc(C(=O)N[C@@H](C)c3cccc(C(F)(F)F)c3F)cc12 [Example 299, (S)-4′-((5-((1-(2-Fluoro-3-(trifluoromethyl)phenyl)ethyl)carbamoyl)-2,3-dimethyl-1H-indol-1-yl)methyl)-[1,1′-biphenyl]-2-carboxylic acid] |  |  |  | IC50 (GST-PPARG-LBD; Lanthascreen PPARG competitive binding): 27 nM; EC50 ([2]; GAL4 transactivation; read-out: EC50 (nM) GAL4): 346 nM; activation at 10 µM [2, 6]: 15%

Reference: patent US8957093B2, “N-biphenylmethylindole modulators of PPARG” (The Scripps Research Institute, priority 2011, dated 2015)
